Columns and labels:
[1] = system: A. baumannii ATCC 17978 (SEN) and A. baumannii ATCC BAA-1605 (MDR); assay: Adaptive laboratory evolution (ALE), relative MIC of evolved lines; assay type: cell-based, Acinetobacter baumannii; conditions: for Relative MIC (log10): AB-SEN (Acinetobacter baumannii ATCC 17978)
Description: (§1) Using the same set of bacterial strains, we initiated adaptive laboratory evolution with the aim to maximize the level of antibiotic resistance in the populations achieved during a longer, but fixed time period.
(§2) An established protocol for adaptive laboratory evolution[46],[73] was followed to propagate populations with the highest resistance levels. Starting with an antibiotic concentration that caused approximately 50% growth inhibition, ten parallel populations for each antibiotic-ancestor strain combination were grown for 72 hours at 37 °C with continuous shaking (300 RPM). MHB broth medium was used unless stated otherwise. After each incubation, 20 µl of each culture was transferred to four new wells containing fresh medium with increasing antibiotic concentrations (0.5×, 1×, 1.5×, and 2.5× the previous concentration) in a chessboard layout to monitor potential cross-contamination. Growth was monitored by measuring OD600 using a Biotek Synergy 2 microplate reader, and only populations grown in the highest drug concentration with an OD600 > 0.2 were transferred further.
(§3) A robotic liquid handling system was used to automatically prepare a 11 to 16-step serial dilution in 384-well microtiter plates (Greiner). A final concentration of 5 × 10^5 bacterial cells per mL were inoculated into each well containing 60 µL MHB medium. Bacterial cultures were incubated at 37 °C with continuous shaking (Infors shaker, 900 rpm with 3 mm throw) for 18 hours (2 replicates from each). Cell growth was monitored by measuring the optical density (OD600 values, using Biotek Synergy microplate reader). MIC was defined as the antibiotic concentration of complete growth inhibition (i.e., OD600 < 0.05). Relative MIC was calculated as follows:1 relativeMIC=MICevolved/MICancestor […]
(§4) Supplementary Figure 4. Resistance levels following adaptive laboratory evolution across bacterial strains. The level of resistance was measured as the fold change in relative MIC between evolved and ancestral strains after ~60 days of adaptive laboratory evolution. Data are grouped by bacterial strain (A. baumannii (AB), E. coli (EC), K. pneumoniae (KP), and P. aeruginosa (PA)) and categorized as either multidrug-resistant (MDR) or sensitive (SEN). Each data point represents a laboratory evolved line, and boxplots show the median, first and third quartiles, with whiskers indicating the 5th and 95th percentiles.
(§5) Statistical analysis was performed using two-sided Dunn’s post-hoc test with Benjamini-Hochberg correction for multiple comparisons (****/ ***/ **/ * indicates p < 0.0001/ 0.001/ 0.01/ 0.05). For detailed information on antibiotic and bacterial species, see Supplementary Table 1. For mode of action groups, refer to Table 1. Source data are provided as a Source Data file.

[2] = system: E. coli ATCC 25922 (SEN) and E. coli NCTC13846 (MDR); assay: as above; assay type: cell-based, Escherichia coli; conditions: for Relative MIC (log10): EC-SEN (Escherichia coli ATCC 25922)
Description: as §1, §2, §3, §4, §5
(1 picture or pasted object on this page, not shown here)

[3] = AB-SEN (ATCC 17978), evolved line 1, MIC of evolved line / MIC of ancestor
[4] = AB-SEN (ATCC 17978), evolved line 2, MIC of evolved line / MIC of ancestor
[5] = AB-SEN (ATCC 17978), evolved line 3, MIC of evolved line / MIC of ancestor
[6] = AB-SEN (ATCC 17978), evolved line 4, MIC of evolved line / MIC of ancestor
[7] = AB-SEN (ATCC 17978), evolved line 5, MIC of evolved line / MIC of ancestor
[8] = AB-SEN (ATCC 17978), evolved line 6, MIC of evolved line / MIC of ancestor
[9] = AB-SEN (ATCC 17978), evolved line 7, MIC of evolved line / MIC of ancestor
[10] = AB-SEN (ATCC 17978), evolved line 8, MIC of evolved line / MIC of ancestor
[11] = AB-SEN (ATCC 17978), evolved line 9, MIC of evolved line / MIC of ancestor
[12] = AB-SEN (ATCC 17978), evolved line 10, MIC of evolved line / MIC of ancestor
[13] = evolved line 2 adapted to the named antibiotic
[14] = evolved line 6 adapted to the named antibiotic
[15] = evolved line 9 adapted to the named antibiotic
[16] = evolved line 10 adapted to the named antibiotic
[17] = Acinetobacter baumannii ATCC 17978 (AB-SEN), evolved line 1
[18] = Acinetobacter baumannii ATCC 17978 (AB-SEN), evolved line 2
[19] = Acinetobacter baumannii ATCC 17978 (AB-SEN), evolved line 3
[20] = Acinetobacter baumannii ATCC 17978 (AB-SEN), evolved line 4
[21] = Acinetobacter baumannii ATCC 17978 (AB-SEN), evolved line 5
[22] = Acinetobacter baumannii ATCC 17978 (AB-SEN), evolved line 6
[23] = Acinetobacter baumannii ATCC 17978 (AB-SEN), evolved line 7
[24] = Acinetobacter baumannii ATCC 17978 (AB-SEN), evolved line 8
[25] = Acinetobacter baumannii ATCC 17978 (AB-SEN), evolved line 9
[26] = Acinetobacter baumannii ATCC 17978 (AB-SEN), evolved line 10

CN[C@@H]1[C@@H](O[C@H]2O[C@H](CO)[C@@H](N)[C@H](O)[C@H]2O)OC2C[C@@H](N)[C@@H](O[C@H]3[C@H](O)[C@@H](O)[C@H](N)C[C@@H]3N)OC2[C@@H]1O (stereo partly drawn) [Apramycin]
Relative MIC [1, 3]: 32
Relative MIC [1, 4]: 64
Relative MIC [1, 5]: 32
Relative MIC [1, 6]: 16
Relative MIC [1, 7]: 32
Relative MIC [1, 8]: 16
Relative MIC [1, 9]: 64
Relative MIC [1, 10]: 32
Relative MIC [1, 11]: 32
Relative MIC [1, 12]: 32
Relative MIC (log10) [1, 13]: 1.806
Relative MIC (log10) ([1]; evolved line 3 adapted to the named antibiotic): 1.505
Relative MIC (log10) [1, 14]: 1.204
Relative MIC (log10) [1, 15]: 1.505
Relative MIC (log10) [1, 16]: 1.505
Relative MIC [1, 17]: 32
Relative MIC [1, 18]: 64
Relative MIC [1, 19]: 32
Relative MIC [1, 20]: 16
Relative MIC [1, 21]: 32
Relative MIC [1, 22]: 16
Relative MIC [1, 23]: 64
Relative MIC [1, 24]: 32
Relative MIC [1, 25]: 32
Relative MIC [1, 26]: 32

Nc1nc(-n2cc(C(=O)O)c(=O)c3cc(F)c(N4CC(O)C4)c(Cl)c32)c(F)cc1F [Delafloxacin]
Relative MIC [1, 3]: 256
Relative MIC [1, 4]: 128
Relative MIC [1, 5]: 256
Relative MIC [1, 6]: 256
Relative MIC [1, 7]: 512
Relative MIC [1, 8]: 256
Relative MIC [1, 9]: 128
Relative MIC [1, 10]: 64
Relative MIC [1, 11]: 128
Relative MIC [1, 12]: 128
Relative MIC (log10) [1, 13]: 2.107
Relative MIC (log10) ([1]; evolved line 4 adapted to the named antibiotic): 2.408
Relative MIC (log10) ([1]; evolved line 5 adapted to the named antibiotic): 2.709
Relative MIC (log10) [1, 14]: 2.408
Relative MIC (log10) [1, 15]: 2.107
Relative MIC [1, 17]: 256
Relative MIC [1, 18]: 128
Relative MIC [1, 19]: 256
Relative MIC [1, 20]: 256
Relative MIC [1, 21]: 512
Relative MIC [1, 22]: 256
Relative MIC [1, 23]: 128
Relative MIC [1, 24]: 64
Relative MIC [1, 25]: 128
Relative MIC [1, 26]: 128
Relative MIC ([2]; EC-SEN (ATCC 25922), evolved line 1, MIC of evolved line / MIC of ancestor): 128
Relative MIC ([2]; EC-SEN (ATCC 25922), evolved line 2, MIC of evolved line / MIC of ancestor): 1024
Relative MIC ([2]; EC-SEN (ATCC 25922), evolved line 3, MIC of evolved line / MIC of ancestor): 512
Relative MIC ([2]; EC-SEN (ATCC 25922), evolved line 4, MIC of evolved line / MIC of ancestor): 512
Relative MIC ([2]; EC-SEN (ATCC 25922), evolved line 5, MIC of evolved line / MIC of ancestor): 128
Relative MIC ([2]; EC-SEN (ATCC 25922), evolved line 6, MIC of evolved line / MIC of ancestor): 1024
Relative MIC ([2]; EC-SEN (ATCC 25922), evolved line 7, MIC of evolved line / MIC of ancestor): 2048
Relative MIC ([2]; EC-SEN (ATCC 25922), evolved line 8, MIC of evolved line / MIC of ancestor): 256
Relative MIC ([2]; EC-SEN (ATCC 25922), evolved line 9, MIC of evolved line / MIC of ancestor): 2048
Relative MIC ([2]; EC-SEN (ATCC 25922), evolved line 10, MIC of evolved line / MIC of ancestor): 512
Relative MIC (log10) [2, 13]: 3.0103
Relative MIC (log10) [2, 14]: 3.0103
Relative MIC (log10) ([2]; evolved line 7 adapted to the named antibiotic): 3.311
Relative MIC (log10) [2, 15]: 3.311
Relative MIC (log10) [2, 16]: 2.709
Relative MIC ([2]; Escherichia coli ATCC 25922 (EC-SEN), evolved line 1): 128
Relative MIC ([2]; Escherichia coli ATCC 25922 (EC-SEN), evolved line 2): 1024
Relative MIC ([2]; Escherichia coli ATCC 25922 (EC-SEN), evolved line 3): 512
Relative MIC ([2]; Escherichia coli ATCC 25922 (EC-SEN), evolved line 4): 512
Relative MIC ([2]; Escherichia coli ATCC 25922 (EC-SEN), evolved line 5): 128
Relative MIC ([2]; Escherichia coli ATCC 25922 (EC-SEN), evolved line 6): 1024
Relative MIC ([2]; Escherichia coli ATCC 25922 (EC-SEN), evolved line 7): 2048
Relative MIC ([2]; Escherichia coli ATCC 25922 (EC-SEN), evolved line 8): 256
Relative MIC ([2]; Escherichia coli ATCC 25922 (EC-SEN), evolved line 9): 2048
Relative MIC ([2]; Escherichia coli ATCC 25922 (EC-SEN), evolved line 10): 512
